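Following 48 hours of exposure in 96-well plates, responses at five concentrations were used to interpolate endpoints linearly. The concentration for 50% growth inhibition is given as GI50.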 Active and inactive are the calls of the source. Cut-off read from the data, not from the text of the source: active = GI50 up to about 1.1 µM and inactive = higher.
Assays:
Test in all cases: NCI tumour cell line growth inhibition, 48 h
A549 = tested on: A549
COLO 205 = tested on: COLO 205
HCC 2998 = tested on: HCC 2998
HOP-92 = tested on: HOP-92
LOX IMVI = tested on: LOX IMVI
M14 = tested on: M14
NCI-H226 = tested on: NCI-H226
OVCAR-5 = tested on: OVCAR-5
RXF 393 = tested on: RXF 393
SF-295 = tested on: SF-295
SF-539 = tested on: SF-539
SK-MEL-2 = tested on: SK-MEL-2
SK-OV-3 = tested on: SK-OV-3
SNB-75 = tested on: SNB-75
TK-10 = tested on: TK-10
U-251 = tested on: U-251
UACC-62 = tested on: UACC-62

With O=C(CO[N+](=O)[O-])OC/C=C/c1ccccc1 the GI50 (A549) was > 100 µM (inactive), the GI50 (COLO 205) was > 100 µM (inactive) and the GI50 (HCC 2998) was > 100 µM (inactive). The GI50 (HOP-92) was > 100 µM (inactive), the GI50 (LOX IMVI) was > 100 µM (inactive) and the GI50 (M14) was > 100 µM (inactive). For the same compound, the GI50 (NCI-H226) was > 100 µM (inactive), the GI50 (OVCAR-5) was > 100 µM (inactive) and the GI50 (RXF 393) was > 100 µM (inactive). For the same compound, the GI50 (SF-295) was > 100 µM (inactive), the GI50 (SF-539) was > 100 µM (inactive) and the GI50 (SK-MEL-2) was > 100 µM (inactive). For the same compound, the GI50 (SK-OV-3) was > 100 µM (inactive), the GI50 (SNB-75) was > 100 µM (inactive) and the GI50 (TK-10) was > 100 µM (inactive). For the same compound, the GI50 (U-251) was > 100 µM (inactive) and the GI50 (UACC-62) was > 10 µM (inactive).
For CC1CC[C@@]23CCC4(C)[C@@](C=CC5[C@@]6(C)CCC(=O)C(C)(C)C6CC[C@]54C)(OC2=O)[C@@H]3[C@H]1C (some centres undefined), the GI50 (A549) was 6.93 µM (inactive), the GI50 (COLO 205) was 13.7 µM (inactive) and the GI50 (HOP-92) was 15.9 µM (inactive). The GI50 (LOX IMVI) was 13.8 µM (inactive), the GI50 (M14) was 21.7 µM (inactive) and the GI50 (NCI-H226) was 19.8 µM (inactive). For the same compound, the GI50 (RXF 393) was 14.1 µM (inactive), the GI50 (SF-295) was 18.8 µM (inactive) and the GI50 (SF-539) was 24.5 µM (inactive). For the same compound, the GI50 (SK-OV-3) was 27.9 µM (inactive), the GI50 (SNB-75) was 23.6 µM (inactive) and the GI50 (TK-10) was 22.4 µM (inactive). For the same compound, the GI50 (U-251) was 17.3 µM (inactive) and the GI50 (UACC-62) was 12.2 µM (inactive).
In the case of CC1(C)CCOC(Sc2ccccc2)C1 (centres undefined), the GI50 (A549) is reported as 24.3 µM (inactive), the GI50 (COLO 205) is reported as 52.2 µM (inactive) and the GI50 (HCC 2998) is reported as > 100 µM (inactive). The GI50 (LOX IMVI) was 91.4 µM (inactive), the GI50 (M14) was 53.2 µM (inactive) and the GI50 (RXF 393) was 32.1 µM (inactive). For the same compound, the GI50 (SF-295) was 66.2 µM (inactive), the GI50 (SK-MEL-2) was 30.3 µM (inactive) and the GI50 (SK-OV-3) was > 100 µM (inactive). For the same compound, the GI50 (SNB-75) was 53.2 µM (inactive), the GI50 (TK-10) was > 100 µM (inactive) and the GI50 (U-251) was 18.7 µM (inactive). The GI50 (UACC-62) was 38.5 µM (inactive).
COC(=O)CC1C[C@H](C#N)N(C(=O)c2ccccc2)C[C@@H]1CC[N+](=O)[O-] (some centres undefined) was tested, and the GI50 (A549) was > 100 µM (inactive), the GI50 (COLO 205) was > 100 µM (inactive) and the GI50 (HCC 2998) was > 100 µM (inactive). The GI50 (HOP-92) was > 100 µM (inactive), the GI50 (LOX IMVI) was > 100 µM (inactive) and the GI50 (M14) was > 100 µM (inactive). For the same compound, the GI50 (OVCAR-5) was > 100 µM (inactive), the GI50 (RXF 393) was > 100 µM (inactive) and the GI50 (SF-295) was > 100 µM (inactive). For the same compound, the GI50 (SF-539) was > 100 µM (inactive), the GI50 (SK-MEL-2) was 0.0546 µM (active) and the GI50 (SK-OV-3) was > 100 µM (inactive). For the same compound, the GI50 (SNB-75) was > 100 µM (inactive), the GI50 (TK-10) was > 100 µM (inactive) and the GI50 (U-251) was > 100 µM (inactive). The GI50 (UACC-62) was > 100 µM (inactive).
With O=C(c1ccc(Cl)cc1Cl)C1[C@H]2C(=O)N(c3ccc(Cc4ccc(N5C(=O)[C@@H]6ON(c7ccccc7)C(C(=O)c7ccc(Cl)cc7Cl)[C@@H]6C5=O)cc4)cc3)C(=O)[C@H]2ON1c1ccccc1 (some centres undefined) the GI50 (A549) was > 50 µM (inactive), the GI50 (COLO 205) was > 50 µM (inactive) and the GI50 (HCC 2998) was > 50 µM (inactive). For the same compound, the GI50 (LOX IMVI) was > 50 µM (inactive), the GI50 (M14) was > 50 µM (inactive) and the GI50 (NCI-H226) was > 50 µM (inactive). For the same compound, the GI50 (OVCAR-5) was > 50 µM (inactive), the GI50 (RXF 393) was > 50 µM (inactive) and the GI50 (SF-295) was > 50 µM (inactive). The GI50 (SF-539) was > 50 µM (inactive), the GI50 (SK-MEL-2) was > 50 µM (inactive) and the GI50 (SK-OV-3) was > 50 µM (inactive). The GI50 (SNB-75) was > 50 µM (inactive), the GI50 (TK-10) was > 50 µM (inactive) and the GI50 (U-251) was > 50 µM (inactive). The GI50 (UACC-62) was > 50 µM (inactive).
In the case of Cn1c(=O)nc2n(-c3cccc(F)c3)c3ccccc3nc-2c1=O, the GI50 (A549) is reported as 19 µM (inactive), the GI50 (COLO 205) is reported as 6.11 µM (inactive) and the GI50 (HCC 2998) is reported as 13.4 µM (inactive). For the same compound, the GI50 (LOX IMVI) was 18.1 µM (inactive), the GI50 (M14) was 18.7 µM (inactive) and the GI50 (NCI-H226) was 29.6 µM (inactive). The GI50 (OVCAR-5) was 33.7 µM (inactive), the GI50 (RXF 393) was 67.9 µM (inactive) and the GI50 (SF-295) was 24.9 µM (inactive). For the same compound, the GI50 (SF-539) was 25.4 µM (inactive), the GI50 (SK-MEL-2) was 20.3 µM (inactive) and the GI50 (SK-OV-3) was > 100 µM (inactive). The GI50 (SNB-75) was 24.8 µM (inactive), the GI50 (TK-10) was 31.6 µM (inactive) and the GI50 (U-251) was 19.3 µM (inactive). The GI50 (UACC-62) was 3.12 µM (inactive).
With COc1cccc(/C=C/c2cc(OC)c(OC)c(OC)c2)c1 the GI50 (A549) was 42.3 µM (inactive), the GI50 (COLO 205) was 34.4 µM (inactive) and the GI50 (HCC 2998) was > 100 µM (inactive). For the same compound, the GI50 (HOP-92) was > 100 µM (inactive), the GI50 (M14) was 23.8 µM (inactive) and the GI50 (NCI-H226) was 18.4 µM (inactive). The GI50 (OVCAR-5) was > 100 µM (inactive), the GI50 (SF-539) was 24.4 µM (inactive) and the GI50 (SK-MEL-2) was 62.7 µM (inactive). The GI50 (SK-OV-3) was 38.2 µM (inactive), the GI50 (SNB-75) was 18.5 µM (inactive) and the GI50 (U-251) was 36.5 µM (inactive). For the same compound, the GI50 (UACC-62) was 25.4 µM (inactive).
For CC(/C(=N\Nc1ccccc1)c1ccc(O)cc1)C1C(=O)Oc2ccccc21 (centres undefined), the GI50 (A549) was > 100 µM (inactive), the GI50 (COLO 205) was > 100 µM (inactive) and the GI50 (HCC 2998) was > 100 µM (inactive). For the same compound, the GI50 (LOX IMVI) was > 100 µM (inactive), the GI50 (M14) was > 100 µM (inactive) and the GI50 (RXF 393) was > 100 µM (inactive). For the same compound, the GI50 (SF-295) was > 100 µM (inactive), the GI50 (SF-539) was > 100 µM (inactive) and the GI50 (SK-MEL-2) was > 100 µM (inactive). For the same compound, the GI50 (SNB-75) was 55.7 µM (inactive), the GI50 (TK-10) was > 100 µM (inactive) and the GI50 (U-251) was > 100 µM (inactive). For the same compound, the GI50 (UACC-62) was > 100 µM (inactive).
CC(=O)NC(C=O)C(O[C@H](C)C(=O)NC(C)C(=O)NC(CCC(N)=O)C(=O)OCc1ccccc1)C(O)C(O)COC(=O)CCNc1c2ccccc2nc2cccc([N+](=O)[O-])c12 (some centres undefined) was tested, and the GI50 (A549) was 2.23 µM (inactive), the GI50 (COLO 205) was 1.29 µM (inactive) and the GI50 (HCC 2998) was 1.54 µM (inactive). The GI50 (HOP-92) was 2.31 µM (inactive), the GI50 (LOX IMVI) was 14.6 µM (inactive) and the GI50 (M14) was 1.9 µM (inactive). The GI50 (NCI-H226) was 2.6 µM (inactive), the GI50 (OVCAR-5) was 3.44 µM (inactive) and the GI50 (RXF 393) was 3.96 µM (inactive). For the same compound, the GI50 (SF-295) was 13.1 µM (inactive), the GI50 (SF-539) was 6.12 µM (inactive) and the GI50 (SK-MEL-2) was 1.63 µM (inactive). For the same compound, the GI50 (SNB-75) was 3.97 µM (inactive), the GI50 (TK-10) was 13.6 µM (inactive) and the GI50 (U-251) was 2.56 µM (inactive). The GI50 (UACC-62) was 3.23 µM (inactive).
